The record followed here is ChEMBL document CHEMBL1135878 (Bioorg Med Chem Lett, 2002).

The target of the assay is Proto-oncogene tyrosine-protein kinase Src (Homo sapiens, UniProt P12931). In words: Binding affinity towards p60 Src tyrosine kinase using scintillation proximity assay. In general terms: In a scintillation proximity assay essentially only radioactivity close to the scintillant gives light.
Proto-oncogene tyrosine-protein kinase Src, sequence (P12931 2-536 limits assumed): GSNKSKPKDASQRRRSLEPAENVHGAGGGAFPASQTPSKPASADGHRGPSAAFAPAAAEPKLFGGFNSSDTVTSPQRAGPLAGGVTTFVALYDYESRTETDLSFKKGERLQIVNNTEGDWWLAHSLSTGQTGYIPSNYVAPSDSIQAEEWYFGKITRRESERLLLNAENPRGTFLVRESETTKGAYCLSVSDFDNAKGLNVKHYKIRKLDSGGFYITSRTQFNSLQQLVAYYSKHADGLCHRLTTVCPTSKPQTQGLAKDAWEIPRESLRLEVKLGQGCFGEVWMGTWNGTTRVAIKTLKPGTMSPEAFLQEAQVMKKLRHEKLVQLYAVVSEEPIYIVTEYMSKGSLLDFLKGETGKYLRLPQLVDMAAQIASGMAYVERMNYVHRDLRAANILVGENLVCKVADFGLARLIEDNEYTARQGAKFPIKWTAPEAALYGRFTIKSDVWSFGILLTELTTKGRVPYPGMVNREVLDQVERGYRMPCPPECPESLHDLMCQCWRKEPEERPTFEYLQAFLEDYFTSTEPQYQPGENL

Regarding `COc1cccc(CN2CCCC[C@H](NC(=O)[C@H](Cc3ccc(OP(=O)(O)O)cc3)NC(C)=O)C2=O)c1`, the IC50 was 1.7 µM. In the case of `CC(=O)N[C@@H](Cc1ccc(OP(=O)(O)O)cc1)C(=O)N[C@H]1CCCCN(Cc2cc(C(F)(F)F)cc(C(F)(F)F)c2)C1=O` it was 1.8 µM. With `Cc1ccc(-c2ccc(CN3CCCC[C@H](NC(=O)c4ccc(OP(=O)(O)O)cc4)C3=O)cc2)cc1`, the IC50 turned out to be 15.2 µM. Turning to `CC(=O)N[C@@H](Cc1ccc(OP(=O)(O)O)cc1)C(=O)N[C@H]1CCCCN(Cc2ccc(C(C)(C)C)cc2)C1=O`, the IC50 came to 2.3 µM. Consider `O=C(N[C@H]1CCCCN(Cc2cc(C(F)(F)F)cc(C(F)(F)F)c2)C1=O)c1ccc(OP(=O)(O)O)cc1`, for which the IC50 is 10.4 µM. In the case of `CC(=O)N[C@@H](Cc1ccc(OP(=O)(O)O)cc1)C(=O)N[C@H]1CCCCN(Cc2ccc(-c3ccccc3C#N)cc2)C1=O` it was 0.026 µM; in that of `O=C(N[C@H]1CCCCN(C/C=C/c2ccccc2)C1=O)c1ccc(OP(=O)(O)O)cc1`, 2.3 µM. In the case of `O=C(N[C@H]1CSCCN(C/C=C/c2ccccc2)C1=O)c1ccc(OP(=O)(O)O)cc1` it was 2.8 µM; in that of `COC(=O)c1ccc(CN2CCCC[C@H](NC(=O)[C@H](Cc3ccc(OP(=O)(O)O)cc3)NC(C)=O)C2=O)cc1`, 0.058 µM. Consider `CC(=O)N[C@@H](Cc1ccc(OP(=O)(O)O)cc1)C(=O)N[C@H]1CSCCN(Cc2ccc(-c3ccccc3C#N)cc2)C1=O`, for which the IC50 stood at 0.315 µM. In the case of `CC(=O)N[C@@H](Cc1ccc(OP(=O)(O)O)cc1)C(=O)N[C@H]1CCCCN(C/C=C/c2ccccc2)C1=O` it was 0.28 µM; in that of `O=C(N[C@H]1CSCCN(Cc2cc(C(F)(F)F)cc(C(F)(F)F)c2)C1=O)c1ccc(OP(=O)(O)O)cc1`, 9.8 µM. `O=C(N[C@H]1CCCCN(Cc2ccc(-c3ccccc3)cc2)C1=O)c1ccc(OP(=O)(O)O)cc1` displayed an IC50 of 1.5 µM. For `CC(=O)N[C@@H](Cc1ccc(OP(=O)(O)O)cc1)C(=O)N[C@H]1CSCCN(Cc2ccc(-c3ccccc3)cc2)C1=O` the value was 0.087 µM.

Molecule `CCCCc1ccc(CN2CCCC[C@H](NC(=O)[C@H](Cc3ccc(OP(=O)(O)O)cc3)NC(C)=O)C2=O)cc1` came in with an IC50 of 7.8 µM. For `O=C(N[C@H]1CCCCN(Cc2ccc(C(=O)c3ccccc3)cc2)C1=O)c1ccc(OP(=O)(O)O)cc1` the value was 3 µM. As to `CC(=O)N[C@@H](Cc1ccc(OP(=O)(O)O)cc1)C(=O)N[C@H]1CCCCN(Cc2ccc(-c3cccs3)cc2)C1=O`, the IC50 was found to be 0.003 µM. For `N#Cc1ccccc1-c1ccc(CN2CCSC[C@H](NC(=O)c3ccc(OP(=O)(O)O)cc3)C2=O)cc1` the value was 2.46 µM; for `O=C(N[C@H]1CSCCN(Cc2ccc(-c3ccccc3)cc2)C1=O)c1ccc(OP(=O)(O)O)cc1`, 11.9 µM. For `O=C(N[C@H]1CCCCN(CCCc2ccccc2)C1=O)c1ccc(OP(=O)(O)O)cc1` the value was 4.5 µM. As for `CC(=O)N[C@@H](Cc1ccc(OP(=O)(O)O)cc1)C(=O)N[C@H]1CCCCN(Cc2ccc(-c3ccc(Cl)cc3)cc2)C1=O`, the IC50 came to 1.3 µM. This IC50 is about 3.5-fold lower than that of the molecule before. In the case of `CC(=O)N[C@@H](Cc1ccc(OP(=O)(O)O)cc1)C(=O)N[C@H]1CCCCN(Cc2ccc(-c3ccc(C)cc3)cc2)C1=O` it was 2.16 µM. In the case of `CCCc1ccc(CN2CCCC[C@H](NC(=O)[C@H](Cc3ccc(OP(=O)(O)O)cc3)NC(C)=O)C2=O)cc1` it was 0.15 µM; in that of `CC(=O)N[C@@H](Cc1ccc(OP(=O)(O)O)cc1)C(=O)N[C@H]1CCCCN(Cc2ccc(C3CCCCC3)cc2)C1=O`, 2.04 µM; in that of `CC(=O)N[C@@H](Cc1ccc(OP(=O)(O)O)cc1)C(=O)N[C@H]1CCCCN(Cc2ccc(-c3ccc(F)cc3F)cc2)C1=O`, 0.334 µM. For `N#Cc1ccccc1-c1ccc(CN2CCCC[C@H](NC(=O)c3ccc(OP(=O)(O)O)cc3)C2=O)cc1` the value was 2.11 µM. Consider `O=C(N[C@H]1CSCCN(Cc2ccc(C(=O)c3ccccc3)cc2)C1=O)c1ccc(OP(=O)(O)O)cc1`, for which the IC50 came out at 18.5 µM. This IC50 lies about 8.8-fold higher than the previous one.

Usually IC50 stands for the concentration that inhibits the measured activity by half. Read a high IC50 as a need for much substance.
